BindingDB's records for PubMed 8863814 (Cyenamid Agricultural Research Center, 1996)
“And” between values parts separate entries of the source, which are not always exact repeats. Identical values can stand only once.

Assays:
[1] = biological target: T1, Somatostatin receptor type 5 (Rattus norvegicus, UniProt P30938)
T1 sequence (P30938 whole entry): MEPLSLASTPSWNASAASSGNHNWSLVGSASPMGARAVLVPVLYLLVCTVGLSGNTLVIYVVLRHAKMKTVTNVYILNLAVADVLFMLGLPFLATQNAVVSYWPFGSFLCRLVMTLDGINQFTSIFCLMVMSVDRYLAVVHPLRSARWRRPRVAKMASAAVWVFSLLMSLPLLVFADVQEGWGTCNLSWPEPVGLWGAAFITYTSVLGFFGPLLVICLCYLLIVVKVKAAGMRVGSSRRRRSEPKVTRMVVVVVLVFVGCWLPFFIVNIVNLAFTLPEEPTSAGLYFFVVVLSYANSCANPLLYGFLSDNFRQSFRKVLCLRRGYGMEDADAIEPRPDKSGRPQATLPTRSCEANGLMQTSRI

[2] = biological target: Somatostatin receptor type 2 (Rattus norvegicus, UniProt P30680)
[3] = biological target: Somatostatin receptor type 3 (Rattus norvegicus, UniProt P30936)
[4] = biological target: Somatostatin receptor type 1 (Rattus norvegicus, UniProt P28646)
Sequence of Somatostatin receptor type 1 (P28646 whole entry): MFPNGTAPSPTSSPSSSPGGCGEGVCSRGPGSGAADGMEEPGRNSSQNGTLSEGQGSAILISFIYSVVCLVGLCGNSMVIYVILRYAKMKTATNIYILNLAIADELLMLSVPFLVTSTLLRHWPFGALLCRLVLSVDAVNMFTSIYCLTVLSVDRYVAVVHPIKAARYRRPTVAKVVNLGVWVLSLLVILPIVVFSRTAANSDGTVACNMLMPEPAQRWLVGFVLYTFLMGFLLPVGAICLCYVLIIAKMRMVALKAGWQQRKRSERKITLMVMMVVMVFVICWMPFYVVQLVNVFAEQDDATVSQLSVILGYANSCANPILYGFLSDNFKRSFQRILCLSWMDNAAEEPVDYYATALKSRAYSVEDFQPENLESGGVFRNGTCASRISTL

Sequence of Somatostatin receptor type 2 (P30680 whole entry): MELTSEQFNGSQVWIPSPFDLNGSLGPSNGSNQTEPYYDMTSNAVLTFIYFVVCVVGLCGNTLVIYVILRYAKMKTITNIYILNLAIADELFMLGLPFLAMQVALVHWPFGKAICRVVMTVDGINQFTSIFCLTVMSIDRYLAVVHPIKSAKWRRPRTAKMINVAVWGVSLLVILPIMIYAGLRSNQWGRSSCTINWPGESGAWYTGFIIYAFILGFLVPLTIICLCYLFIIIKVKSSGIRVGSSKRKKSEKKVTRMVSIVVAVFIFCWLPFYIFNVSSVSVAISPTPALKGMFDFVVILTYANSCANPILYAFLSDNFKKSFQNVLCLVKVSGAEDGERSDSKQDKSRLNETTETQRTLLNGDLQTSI
Sequence of Somatostatin receptor type 3 (P30936 whole entry): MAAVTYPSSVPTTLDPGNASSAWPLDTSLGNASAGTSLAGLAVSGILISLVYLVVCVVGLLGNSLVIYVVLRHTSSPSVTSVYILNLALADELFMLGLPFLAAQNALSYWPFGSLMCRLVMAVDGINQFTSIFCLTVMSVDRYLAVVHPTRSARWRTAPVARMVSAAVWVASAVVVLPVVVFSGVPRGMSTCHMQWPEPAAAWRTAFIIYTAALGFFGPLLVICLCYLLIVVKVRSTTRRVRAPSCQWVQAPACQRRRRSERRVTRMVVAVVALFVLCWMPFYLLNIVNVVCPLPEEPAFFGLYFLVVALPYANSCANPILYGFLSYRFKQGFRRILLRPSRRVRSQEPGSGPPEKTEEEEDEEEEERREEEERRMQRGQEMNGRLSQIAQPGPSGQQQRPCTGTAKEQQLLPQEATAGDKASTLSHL

SMILES | Ki [1] | Ki [2] | Ki [3] | Ki [4]
CC(=O)N[C@@H](Cc1ccc([N+](=O)[O-])cc1)C(=O)N[C@@H]1CSSC[C@@H](C(=O)N[C@@H](Cc2ccc(O)cc2)C(N)=O)NC(=O)[C@H]([C@@H](C)O)NC(=O)[C@H](CCCCN)NC(=O)[C@@H](Cc2c[nH]c3ccccc23)NC(=O)[C@H](Cc2ccc(O)cc2)NC1=O [AcNH-4-NO2-Phe-c[D-Cys-Tyr-D-Trp-Lys-Thr-Cys]-Tyr-NH2] |  | 0.3 nM | 100 nM | 1000 nM
CC(C)[C@@H]1NC(=O)[C@H](CCCCN)NC(=O)[C@@H](Cc2c[nH]c3ccccc23)NC(=O)[C@H](Cc2ccc(O)cc2)NC(=O)[C@@H](NC(=O)[C@@H](N)Cc2ccc([N+](=O)[O-])cc2)CSSC[C@@H](C(=O)N[C@@H](Cc2ccc(O)cc2)C(N)=O)NC1=O [H2N-4-NO2-Phe-c[Cys-Tyr-D-Trp-Lys-Val-Cys]-Tyr-Nh2] |  | 0.2 nM | 300 nM | 1000 nM
CC(C)[C@@H]1NC(=O)[C@H](CCCCN)NC(=O)[C@@H](Cc2c[nH]c3ccccc23)NC(=O)[C@H](Cc2ccc(O)cc2)NC(=O)[C@H](NC(=O)[C@@H](N)Cc2ccc([N+](=O)[O-])cc2)CSSC[C@@H](C(=O)N[C@@H](Cc2ccc(O)cc2)C(N)=O)NC1=O [H2N-4-NO2-Phe-c[D-Cys-Tyr-D-Trp-Lys-Val-Cys]-Tyr-Nh2] |  | 12.9 nM | 1000 nM | 1000 nM
C[C@H](N)C(=O)NCC(=O)N[C@@H]1CSSC[C@@H](C(=O)O)NC(=O)[C@H](CO)NC(=O)[C@@H]([C@@H](C)O)NC(=O)[C@H](Cc2ccccc2)NC(=O)[C@@H]([C@@H](C)O)NC(=O)[C@H](CCCCN)NC(=O)[C@@H](Cc2c[nH]c3ccccc23)NC(=O)[C@H](Cc2ccccc2)NC(=O)[C@@H](Cc2ccccc2)NC(=O)[C@H](CC(N)=O)NC(=O)[C@@H](CCCCN)NC1=O | 5 nM |  |  | 

More lines, now with the values ahead:

Ki [1] | Ki [2] | Ki [3] | Ki [4] | SMILES
18.1 nM |  |  |  | CC(C)[C@H]1NC(=O)[C@H](CCCCN)NC(=O)[C@@H](Cc2c[nH]c3ccccc23)NC(=O)[C@H](Cc2ccc(O)cc2)NC(=O)[C@H](NC(=O)[C@@H](N)Cc2ccc([N+](=O)[O-])cc2)CSSC[C@H](C(=O)N[C@@H](C(N)=O)[C@H](C)O)NC1=O [H2N-4-NO2-Phe-c[D-Cys-Tyr-D-Trp-Lys-Val-Cys]-Tyr-Nh2]
2.2 nM |  |  |  | CC(=O)N[C@H](Cc1ccc([N+](=O)[O-])cc1)C(=O)N[C@H]1CSSC[C@H](C(=O)N[C@@H](C(N)=O)[C@H](C)O)NC(=O)[C@@H](C(C)C)NC(=O)[C@H](CCCCN)NC(=O)[C@@H](Cc2c[nH]c3ccccc23)NC(=O)[C@H](Cc2ccc(O)cc2)NC1=O [AcNH-4-NO2-Phe-c[Cys-Tyr-D-Trp-Lys-Thr-Cys]-Tyr-NH2]
2.5 nM |  |  |  | CC(=O)N[C@H](Cc1ccc([N+](=O)[O-])cc1)C(=O)N[C@@H]1CSSC[C@H](C(=O)N[C@@H](C(N)=O)[C@H](C)O)NC(=O)[C@@H](C(C)C)NC(=O)[C@H](CCCCN)NC(=O)[C@@H](Cc2c[nH]c3ccccc23)NC(=O)[C@H](Cc2ccc(O)cc2)NC1=O [AcNH-4-NO2-Phe-c[D-Cys-Tyr-D-Trp-Lys-Thr-Cys]-Tyr-NH2]
0.1 nM and 0.42 nM |  |  |  | CC(C)[C@H]1NC(=O)[C@H](CCCCN)NC(=O)[C@@H](Cc2c[nH]c3ccccc23)NC(=O)[C@H](Cc2ccc(O)cc2)NC(=O)[C@@H](NC(=O)[C@@H](N)Cc2ccc([N+](=O)[O-])cc2)CSSC[C@H](C(=O)N[C@@H](C(N)=O)[C@H](C)O)NC1=O [H2N-4-NO2-Phe-c[Cys-Tyr-D-Trp-Lys-Val-Cys]-Tyr-Nh2]
 | 0.1 nM | 1000 nM |  | CC(=O)N[C@@H](Cc1ccc([N+](=O)[O-])cc1)C(=O)N[C@H]1CSSC[C@@H](C(=O)N[C@@H](Cc2ccc(O)cc2)C(N)=O)NC(=O)[C@H]([C@@H](C)O)NC(=O)[C@H](CCCCN)NC(=O)[C@@H](Cc2c[nH]c3ccccc23)NC(=O)[C@H](Cc2ccc(O)cc2)NC1=O [AcNH-4-NO2-Phe-c[Cys-Tyr-D-Trp-Lys-Thr-Cys]-Tyr-NH2]
